Results taken from ChEMBL document CHEMBL1158462, “Recent advances in the development of polyamine analogues as antitumor agents” (J Med Chem, 2009).
pIC50: −log10 of the molar value.

Tests used:
[1] = Antitumor activity against human H82 cells; format: functional, cell-based; details: NCI-H82
NCI-H157 = assay: Antitumor activity against human NCI-H157 cells by MTT assay; format: functional, cell-based
L1210 = assay: Antitumor activity against mouse L1210 cells; format: functional, cell-based
Malme-3M = assay: Antitumor activity against human MALME-3M cells; format: functional, cell-based
DU-145 = assay: Antitumor activity against human DU145 cells; format: functional, cell-based
HT-29 = assay: Antitumor activity against human HT-29 cells; format: functional, cell-based
A549 [2] = assay: Antitumor activity against human A549 cells; format: functional, cell-based
PC-3 = assay: cells; details: Homo sapiens
Description: Antitumor activity against human PC3 cells

MCF7 = assay: cells; format: functional, cell-based; details: Homo sapiens
Description: Antitumor activity against human MCF7 cells

[3] = Antitumor activity against human U251MG cells; format: functional, cell-based; details: U-251
NCI-H69 = assay: Antitumor activity against human H69 cells; format: functional, cell-based
DuPro = assay: Antitumor activity against human DuPro cells; format: functional, cell-based
MCF-10A = assay: cells; format: functional, cell-based; details: Homo sapiens
Description: Antitumor activity against human MCF10A cells

[4] = molecular target: Histone deacetylase (Homo sapiens) (UniProt Q13547+O15379+Q9UBN7+Q92769+Q9UQL6+Q8WUI4+Q9BY41+Q96DB2+P56524+Q9UKV0+Q969S8); details: HeLa, at 5 µM
Description: Inhibition of HDAC from human HeLa cells assessed as of histone H3 acetylation at 5 uM

cells = details: Mus musculus, ML1
Description: Antitumor activity against mouse ML1 cells

A549 [5] = assay: Antitumor activity against human A549 cells xenografted nu/nu Fox Chase mouse assessed as reduction in tumor growth at 75 mg/kg; format: functional; parameters: scale not given: the % may be the effect or the level left
A549 [6] = assay: Antitumor activity against human A549 cells xenografted nu/nu Fox Chase mouse assessed as reduction in tumor growth at 125 mg/kg; format: functional; parameters: scale not given: the % may be the effect or the level left
LNCaP = assay: Antitumor activity against human LNCAP cells; format: functional, cell-based
HeLa = assay: Antiproliferative activity against human HeLa cells; format: functional, cell-based

With `CCNCCCNCCCNCCCNC[C@@H](C)CC` as the compound, how does the pIC50 [1] read?
The pIC50 was 5.89.

What about the pIC50 (NCI-H157) of the same compound?
Its pIC50 is 5.89.

What does the source list for `CCNCCCNCCCNCCCNCC` [BIS(ETHYL)NORSPERMINE]?
pIC50 (L1210): 6.70; pIC50 (Malme-3M): 6.70

With `CCNCCCNCCCNCCCNCCC(C)C` as the compound, how does the pIC50 (NCI-H157) read?
The pIC50 was 6.22.

What does the source list for `CCNCCCCNC[C@@H]1C[C@H]1NCCCCNCC`?
pIC50 (DU-145): 6.60; pIC50 (HT-29): 6.60; pIC50 (A549 [2]): 6.60; pIC50 (PC-3): 6.60; pIC50 (MCF7): < 4.52; pIC50 [3]: 6.60

Which results are given for `CCNCCCNCCCNCCCNC(C)CC` (centres undefined)?
pIC50 [1]: 6.10; pIC50 (NCI-H69): 6.10; pIC50 (A549 [2]): 6.10; pIC50 (NCI-H157): 5.89

With `COc1cc(C(C)(C)C)cc(C(C)(C)C)c1CNCCCNCCCNCCCNCc1c(OC)cc(C(C)(C)C)cc1C(C)(C)C` as the compound, how does the pIC50 (NCI-H157) read?
The pIC50 was 5.40.

With `CCCCCCCCCCCCCC1CC(=O)NCCCNCCCCNCCCN1` (centres undefined) [BUDMUNCHIAMINE L4] as the compound, how does the pIC50 (DuPro) read?
The pIC50 was 6.22.

And the pIC50 (PC-3)?
Its pIC50 is 6.22.

With `c1ccc(C(CCNCCCNCCCCNCCCNCCC(c2ccccc2)c2ccccc2)c2ccccc2)cc1` as the compound, how does the pIC50 (NCI-H157) read?
Its pIC50 is 5.42.

With `CCNCC[C@@H](O)CNCCCCNC[C@H](O)CCNCC` as the compound, how does the pIC50 (L1210) read?
Its pIC50 is 6.22.

What does the source list for `CCNCCCNCCCNCCCNCC1CCCCCC1`?
pIC50 [1]: 6.15; pIC50 (NCI-H157): 6.15

With `C(CCCNCCCNCC1CCCCCC1)CCCNCCCNCC1CCCCCC1` as the compound, how does the pIC50 (NCI-H157) read?
The pIC50 was 5.54.

With `Nc1ccccc1NC(=O)c1ccc(CNC(=O)CCCCC(=O)NCCCNCCCCNCc2ccccc2-c2ccccc2)cc1` as the compound, how does the pIC50 (MCF-10A) read?
The pIC50 was < 4.52.

And the inhibition [4]?
The inhibition was 60.1%.

And the pIC50 (MCF7)?
Its pIC50 is < 4.52.

With `O=C(CCCCCCC(=O)NCc1ccc(C(=O)O)cc1)NCCCNCCCCNCC(c1ccccc1)c1ccccc1` as the compound, how does the pIC50 (MCF-10A) read?
Its pIC50 is < 4.52.

What about the inhibition [4] of the same compound?
Its inhibition is 72.6%.

What about the pIC50 (MCF7) of the same compound?
The pIC50 was < 4.52.

With `CCCCNCCCCNCCCCNCCCNCC` as the compound, how does the pIC50 (NCI-H157) read?
The pIC50 was 5.66.

With `CC(C)(C)c1ccc(CNCCCCNC(=O)CCCCCCC(=O)c2ncco2)cc1` as the compound, how does the pIC50 (MCF-10A) read?
The pIC50 was < 4.52.

And the inhibition [4]?
The inhibition was 43.7%.

What about the pIC50 (MCF7) of the same compound?
The pIC50 was 4.57.

With `CCNCCCNCCCNCCCNCCSCC` as the compound, how does the pIC50 (NCI-H157) read?
Its pIC50 is 6.52.

With `Nc1ccccc1NC(=O)c1ccc(CNC(=O)CCCCCCCCC(=O)NCCCNCCCCNCCC(c2ccccc2)c2ccccc2)cc1` as the compound, how does the pIC50 (MCF-10A) read?
The pIC50 was < 4.52.

And the inhibition [4]?
The inhibition was 42.9%.

What about the pIC50 (MCF7) of the same compound?
The pIC50 was < 4.52.

With `CC(/C=C/C(=O)NO)=C\[C@@H](C)C(=O)c1ccc(N(C)C)cc1` [TRICHOSTATIN] as the compound, how does the pIC50 (cells) read?
The pIC50 was 6.60.

Which results are given for `CCNCCCNCC#CCNCCCNCC`?
pIC50 (DU-145): < 4.52; pIC50 (HT-29): < 4.52; pIC50 (A549 [2]): < 4.52; pIC50 (PC-3): < 4.52; pIC50 (MCF7): < 4.52; pIC50 [3]: < 4.52

With `Nc1ccccc1NC(=O)c1ccc(CNC(=O)CCCCC(=O)NCCCNCCCCNCCC(c2ccccc2)c2ccccc2)cc1` as the compound, how does the pIC50 (MCF-10A) read?
The pIC50 was < 4.52.

And the inhibition [4]?
Its inhibition is 48.4%.

And the pIC50 (MCF7)?
The pIC50 was < 4.52.

What does the source list for `CCNCCCNCCCNCCCNC[C@H](C)CO`?
pIC50 [1]: 6.15; Activity (A549 [5]): 65%; Activity (A549 [6]): 65%; pIC50 (NCI-H69): 6.15; pIC50 (A549 [2]): 6.15; pIC50 (NCI-H157): 5.66

With `CCNC/C=C\CNCCCCNCCCCNCCCCNCC` as the compound, how does the pIC50 (DuPro) read?
The pIC50 was 7.10.

And the pIC50 (DU-145)?
The pIC50 was 6.60.

And the pIC50 (LNCaP)?
Its pIC50 is 7.10.

What about the pIC50 (PC-3) of the same compound?
The pIC50 was 7.10.

With `CCNCCCCNCCCCNCCCCNCCCCNCC` as the compound, how does the pIC50 (DU-145) read?
Its pIC50 is 7.00.

What about the pIC50 (LNCaP) of the same compound?
Its pIC50 is 7.00.

What about the pIC50 (PC-3) of the same compound?
Its pIC50 is 7.00.

With `CC(C)c1ccc(CNCCCCNCCCNCc2ccc(C(C)C)cc2)cc1` as the compound, how does the pIC50 (NCI-H157) read?
The pIC50 was 5.38.

With `NCCCNCCCCCCCCNCCCN` as the compound, how does the pIC50 (HeLa) read?
The pIC50 was 5.30.

With `C=C(C)CNCCCNCCCNCCCNCC` as the compound, how does the pIC50 (NCI-H157) read?
Its pIC50 is 6.15.

With `CC(C)(C)c1ccc(CNCCCNCCCNCCCNCc2ccc(C(C)(C)C)cc2)cc1` as the compound, how does the pIC50 (NCI-H157) read?
Its pIC50 is 5.38.

With `CCNCCCNCCCCNCCCNCCC(C)(C)C` as the compound, how does the pIC50 [1] read?
Its pIC50 is 6.05.

What about the pIC50 (NCI-H69) of the same compound?
Its pIC50 is 6.05.

What about the pIC50 (A549 [2]) of the same compound?
The pIC50 was 6.05.

And the pIC50 (NCI-H157)?
The pIC50 was 5.74.

With `c1ccc(-c2ccccc2CNCCCCNCCCNCc2ccccc2-c2ccccc2)cc1` as the compound, how does the pIC50 (NCI-H157) read?
The pIC50 was 5.40.

With `Cc1ccc(CNCCCCNC(=O)CCCCCC(=O)NCc2ccc(C(=O)Nc3ccccc3N)cc2)cc1` as the compound, how does the pIC50 (MCF-10A) read?
Its pIC50 is 4.62.

And the inhibition [4]?
Its inhibition is 48.1%.

What about the pIC50 (MCF7) of the same compound?
Its pIC50 is 6.05.

With `c1ccc(CCc2ccccc2CNCCCCNCCCNCc2ccccc2CCc2ccccc2)cc1` as the compound, how does the pIC50 (NCI-H157) read?
Its pIC50 is 5.38.

With `CCNCCCNCCCNCCCNC(C)C` as the compound, how does the pIC50 (NCI-H157) read?
Its pIC50 is 5.85.
